Measured values reported in patent US12110286B2, “Benzimidazolone derived inhibitors of BCL6” (Cancer Research Technology Limited, priority 2017, dated 2024).

target: Trx-6×His-BCL6 (human BCL6 BTB domain covering amino-acid sequence 5-129) (Homo sapiens (Human), UniProt P41182); assay: HTRF in vitro assay (BCL6 / BCOR-AF633 peptide); format: binding; conditions: further generated data; 1 nM Trx-6×His-BCL6, 300 nM BCOR-AF633 peptide, 0.5 nM anti-6×His-Terbium cryptate
Description: The % inhibition at each concentration was calculated by normalising FRET ratio to the appropriate high (DMSO with all reagents) and low (DMSO without BCL6) controls.

**Q.** `Cn1c(=O)n(CC2C[C@H](F)CN2CC(F)(F)F)c2cc(Nc3ccnc(Cl)c3C#N)ccc21` (stereo in doubt) [Example 25h, 2-chloro-4-((3-(((2R,4S)-4-fluoro-1-(2,2,2-trifluoroethyl)pyrrolidin-2-yl)methyl)-1-methyl-2-oxo-2,3-dihydro-1H-benzo[d]imidazol-5-yl)amino)nicotinonitrile] was tested. Which “HTRF pIC50” value did it give?
**A.** The value was 5.55.

same assay, conditions: result in words

**Q.** Which “activity in the HTRF assay” value does the source give for `Cn1c(=O)n(C)c2cc(Nc3ccncc3C(F)(F)F)ccc21` [1,3-dimethyl-5-((3-(trifluoromethyl)pyridin-4-yl)amino)-1,3-dihydro-2H-benzo[d]imidazol-2-one] here?
**A.** The value was “did not exhibit the desired activity”.

**Q.** How did the “activity in the HTRF assay” value turn out when `Cn1c(=O)n(C)c2cc(Nc3cc(C(F)(F)F)nc4ncnn34)ccc21` [1,3-dimethyl-5-((5-(trifluoromethyl)-[1,2,4]triazolo[1,5-a]pyrimidin-7-yl)amino)-1,3-dihydro-2H-benzo[d]imidazol-2-one] was run?
**A.** The value was “did not exhibit the desired activity”.

**Q.** How did the “activity in the HTRF assay” value turn out when `Cc1cncnc1Nc1ccc2c(c1)n(C)c(=O)n2C` [1,3-dimethyl-5-((5-methylpyrimidin-4-yl)amino)-1,3-dihydro-2H-benzo[d]imidazol-2-one] was run?
**A.** The value was “did not exhibit the desired activity”.

**Q.** For `Cn1c(=O)n(CCc2ccccc2)c2cc(Nc3ccnc4ccnn34)ccc21` [1-methyl-3-phenethyl-5-(pyrazolo[1,5-a]pyrimidin-7-ylamino)-1,3-dihydro-2H-benzo[d]imidazol-2-one], which “activity in the HTRF assay” value is on record?
**A.** Its value is “did not exhibit the desired activity”.

**Q.** `Cn1c(=O)n(CC2CCOCC2)c2cc(Nc3ccnc(Cl)c3C#N)ccc21` [2-chloro-4-((1-methyl-2-oxo-3-((tetrahydro-2H-pyran-4-yl)methyl)-2,3-dihydro-1H-benzo[d]imidazol-5-yl)amino)nicotinonitrile] was tested. Which “activity in the HTRF assay” value did it give?
**A.** Its value is “did not exhibit the desired activity”.

**Q.** How did the “activity in the HTRF assay” value turn out when `Cn1c(=O)n(CC2CCCNC2)c2cc(Nc3ccnc(Cl)c3C#N)ccc21` (centres unmarked) [2-chloro-4-((1-methyl-2-oxo-3-(piperidin-3-ylmethyl)-2,3-dihydro-1H-benzo[d]imidazol-5-yl)amino)nicotinonitrile] was run?
**A.** The value was “did not exhibit the desired activity”.

**Q.** `Cn1c(=O)n(CC2CCNCC2)c2cc(Nc3ccnc(Cl)c3C#N)ccc21` [2-chloro-4-((1-methyl-2-oxo-3-(piperidin-4-ylmethyl)-2,3-dihydro-1H-benzo[d]imidazol-5-yl)amino)nicotinonitrile] was tested. Which “activity in the HTRF assay” value did it give?
**A.** The value was “did not exhibit the desired activity”.

**Q.** How did the “activity in the HTRF assay” value turn out when `Cn1c(=O)n(CCN2CCOCC2)c2cc(Nc3ccnc(Cl)c3C#N)ccc21` [2-chloro-4-((1-methyl-3-(2-morpholinoethyl)-2-oxo-2,3-dihydro-1H-benzo[d]imidazol-5-yl)amino)nicotinonitrile] was run?
**A.** The value was “did not exhibit the desired activity”.

**Q.** How did the “activity in the HTRF assay” value turn out when `CCN(CC)CCn1c(=O)n(C)c2ccc(Nc3ccnc(Cl)c3C#N)cc21` [2-chloro-4-((3-(2-(diethylamino)ethyl)-1-methyl-2-oxo-2,3-dihydro-1H-benzo[d]imidazol-5-yl)amino)nicotinonitrile] was run?
**A.** The value was “did not exhibit the desired activity”.

**Q.** With `CCC(C)(O)Cn1c(=O)n(C)c2ccc(Nc3ccnc(Cl)c3C#N)cc21` (centres unmarked) [2-chloro-4-((3-(2-hydroxy-2-methylbutyl)-1-methyl-2-oxo-2,3-dihydro-1H-benzo[d]imidazol-5-yl)amino)nicotinonitrile] as the compound, how does the “activity in the HTRF assay” value read?
**A.** The value was “did not exhibit the desired activity”.

**Q.** `Cn1c(=O)n(CC(O)C(C)(C)C)c2cc(Nc3ccnc(Cl)c3C#N)ccc21` (centres unmarked) [2-chloro-4-((3-(2-hydroxy-3,3-dimethylbutyl)-1-methyl-2-oxo-2,3-dihydro-1H-benzo[d]imidazol-5-yl)amino)nicotinonitrile] was tested. Which “activity in the HTRF assay” value did it give?
**A.** The value was “did not exhibit the desired activity”.

**Q.** How did the “activity in the HTRF assay” value turn out when `Cn1c(=O)n(CC2CCOC2(C)C)c2cc(Nc3ccnc(Cl)c3C#N)ccc21` (centres unmarked) [2-chloro-4-((3-((2,2-dimethyltetrahydrofuran-3-yl)methyl)-1-methyl-2-oxo-2,3-dihydro-1H-benzo[d]imidazol-5-yl)amino)nicotinonitrile] was run?
**A.** The value was “did not exhibit the desired activity”.

**Q.** How did the “activity in the HTRF assay” value turn out when `Cn1c(=O)n(CC2CC(C)(C)C2)c2cc(Nc3ccnc(Cl)c3C#N)ccc21` [2-chloro-4-((3-((3,3-dimethylcyclobutyl)methyl)-1-methyl-2-oxo-2,3-dihydro-1H-benzo[d]imidazol-5-yl)amino)nicotinonitrile] was run?
**A.** Its value is “did not exhibit the desired activity”.

**Q.** How did the “activity in the HTRF assay” value turn out when `Cn1c(=O)n(CC2(CO)COC2)c2cc(Nc3ccnc(Cl)c3C#N)ccc21` [2-chloro-4-((3-((3-(hydroxymethyl)oxetan-3-yl)methyl)-1-methyl-2-oxo-2,3-dihydro-1H-benzo[d]imidazol-5-yl)amino)nicotinonitrile] was run?
**A.** The value was “did not exhibit the desired activity”.

**Q.** With `Cn1c(=O)n(CC2(C#N)CCOCC2)c2cc(Nc3ccnc(Cl)c3C#N)ccc21` [2-chloro-4-((3-((4-cyanotetrahydro-2H-pyran-4-yl)methyl)-1-methyl-2-oxo-2,3-dihydro-1H-benzo[d]imidazol-5-yl)amino)nicotinonitrile] as the compound, how does the “activity in the HTRF assay” value read?
**A.** The value was “did not exhibit the desired activity”.

**Q.** How did the “activity in the HTRF assay” value turn out when `Cn1c(=O)n(C)c2cc(Nc3ccnc(C(F)(F)F)c3C#N)ccc21` [4-((1,3-dimethyl-2-oxo-2,3-dihydro-1H-benzo[d]imidazol-5-yl)amino)-2-(trifluoromethyl)nicotinonitrile] was run?
**A.** The value was “did not exhibit the desired activity”.

**Q.** `Cc1nccc(Nc2ccc3c(c2)n(C)c(=O)n3C)c1C#N` [4-((1,3-dimethyl-2-oxo-2,3-dihydro-1H-benzo[d]imidazol-5-yl)amino)-2-methylnicotinonitrile] was tested. Which “activity in the HTRF assay” value did it give?
**A.** The value was “did not exhibit the desired activity”.

**Q.** For `Cn1c(=O)n(C)c2cc(Nc3ncncc3C#N)ccc21` [4-((1,3-dimethyl-2-oxo-2,3-dihydro-1H-benzo[d]imidazol-5-yl)amino)pyrimidine-5-carbonitrile], which “activity in the HTRF assay” value is on record?
**A.** The value was “did not exhibit the desired activity”.

**Q.** `Cn1c(=O)n(CC2CCN2)c2cc(Nc3ccnc(Cl)c3C#N)ccc21` (centres unmarked) [4-((3-(azetidin-2-ylmethyl)-1-methyl-2-oxo-2,3-dihydro-1H-benzo[d]imidazol-5-yl)amino)-2-chloronicotinonitrile] was tested. Which “activity in the HTRF assay” value did it give?
**A.** Its value is “did not exhibit the desired activity”.

**Q.** Which “activity in the HTRF assay” value does the source give for `Cn1c(=O)n(CCC(C)(O)CCO)c2cc(Nc3nc(Cl)ncc3Cl)ccc21` (centres unmarked) [5-((2,5-dichloropyrimidin-4-yl)amino)-3-(3,5-dihydroxy-3-methylpentyl)-1-methyl-1,3-dihydro-2H-benzo[d]imidazol-2-one] here?
**A.** Its value is “did not exhibit the desired activity”.

**Q.** Which “activity in the HTRF assay” value does the source give for `Cn1c(=O)n(CCC(C)(C)O)c2cc(Nc3ccnc(Cl)c3C(F)F)ccc21` [5-((2-chloro-3-(difluoromethyl)pyridin-4-yl)amino)-3-(3-hydroxy-3-methylbutyl)-1-methyl-1,3-dihydro-2H-benzo[d]imidazol-2-one] here?
**A.** Its value is “did not exhibit the desired activity”.

**Q.** How did the “activity in the HTRF assay” value turn out when `Cn1c(=O)n(CCC(C)(C)O)c2cc(Nc3ccnc(Cl)c3C(F)(F)F)ccc21` [5-((2-chloro-3-(trifluoromethyl)pyridin-4-yl)amino)-3-(3-hydroxy-3-methylbutyl)-1-methyl-1,3-dihydro-2H-benzo[d]imidazol-2-one] was run?
**A.** Its value is “did not exhibit the desired activity”.
